US20240398783A1, “Compounds and Pharmaceutical Compositions Comprising Inhibitors of Amyloid Peptide Interactions with Glycosaminoglycans, Methods of Treatment and Use Thereof” (Gismo Therapeutics, Inc., priority 2021, published 2024)
Where a name gives a salt, the structure may show the parent alone. Read-outs that look alike come from different tables or passages of the source.

Tests used:
[1] = biological target: T1, SAA binding to heparin (HS-GAG) (Homo sapiens, UniProt P0DJI8); test: Inhibition of SAA binding to immobilized heparin-BSA (ELISA); design: species or system porcine
T1 sequence (P0DJI8 19-122): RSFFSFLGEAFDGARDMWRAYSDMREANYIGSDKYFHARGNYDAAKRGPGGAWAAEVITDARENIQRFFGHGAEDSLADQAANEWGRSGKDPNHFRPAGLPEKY
Experimental: (§1) Porcine intestinal mucosa heparin conjugated to Bovine Serum Albumin (Heparin-BSA) was prepared as described (Najjam, S. et al. 1997, Cytokine 12, 1013-1022). Heparin is a sulfated HS-GAG and is commonly used as a HS-GAG in biochemical and binding assays (Lindahl, U. and Kjellen, L. (2013) ibid). Heparin-BSA at 0.01 mg/ml in Phosphate Buffered Saline (PBS; pH 7.4) was added to a 96 well polystyrene ELISA plate (NUNC Cat. No. 449824; 100 μl per well) and incubated Over Night (ON) at 4 degrees Celsius. For negative controls, ELISA plates were coated with BSA instead of Heparin-BSA, using the same procedure. Following the incubation, the plate was washed consecutively, by immersion, with de-ionized water and PBS (pH 7.4). The ELISA plate was then blocked with nonfat milk (2%, 200 μl per well) for 2 hours at Room Temperature (RT) with gentle shaking. Following blocking, the plate was washed with de-ionized water then PBS (pH 7.4). GBAPs were dissolved and diluted in PBS (pH 6.5, supplemented with 0.1% BSA) at desired concentrations, added to the ELISA plates containing immobilized Heparin-BSA (100 μl per well) and incubated for 2 hours at RT with gentle shaking. Following incubation, the plate was washed with de-ionized water and three times with PBS (pH 6.5) plus Tween. Bound GBAP was detected by a monoclonal antibody specific for that GBAP, followed by incubation with secondary antibody conjugated to horseradish peroxidase (HRP). Antibody was diluted in PBS (pH 6.5 supplemented with 1% BSA). Following each incubation with antibody, the plate was washed with de-ionized water and three times with PBS (pH 6.5) wash buffer containing 0.1% Tween. The peroxidase substrate chromogen, TMB (Dako Cat. No. S1599) was added (100 μl per well) to the ELISA plate and incubated at room temperature. After 5 minutes ELISA Stop Solution (hydrochloric acid 1N, sulfuric acid 3N) was added (100 μl per well) to stop the peroxidase catalyzed colorimetric reaction. The Optical Density of the samples was measured at 450 nm using an ELISA plate reader (BioTek Synergy H1). Following color development, the % inhibition compared to control (BSA-coated plates) was determined. IC-50s were calculated using GraphPad Prism software.
The assay was performed as described in Example 43, with the following modifications. Following to coating the plates with Heparin-BSA, plates were washed as described. The compounds were dissolved in DMSO at 10 mM final concentration and further diluted prior to assay. DMSO concentration in the screening well was up to 2%. Individual compounds were co-incubated with SAA on plates containing immobilized heparin. Serum amyloid A (SAA) from PeProtech (NJ, USA, Cat. No. 300-53) was dissolved in DMSO, quickly frozen and kept in aliquots at −80 degrees Celsius. SAA dissolved in Tris buffer (pH 6.5, supplemented with BSA, 0.1%) was added to the ELISA plate (100 μl per well) and incubated for 2 hours at RT with gentle shaking. Following the incubation, the plate was washed with de-ionized water and three times with Tris Buffered Saline (TBS, pH 6.5) plus Tween. Bound SAA was detected by Anti-SAA Monoclonal Antibody (R&D System Cat. No. MAB30192), followed by secondary anti-IgG antibody conjugated to HRP (R&D System, Cat. No. HAF007). Antibody was diluted in TBS antibody buffer (pH6.5 supplemented with 1% BSA). Following each incubation with antibody, the plate was washed with de-ionized water and three times with TBS (pH6.5) wash buffer containing 0.1% Tween. Following to color development with TMB, as described in Example 43, the Optical Density of the samples was measured at 450 nm using an ELISA plate reader. Following color development, the % inhibition compared to control (no compound, DMSO control) for every compound was determined.
As described in Example 43, Heparin in the form of Heparin-BSA conjugate is used as a source of HS-GAG. For each compound IC-50 value in SAA—heparin-BSA binding assay is shown in μM (micromolar). […]

[2] = biological target: Tau binding to heparin (HS-GAG) (Homo sapiens, UniProt P10636); test: Inhibition of Tau binding to immobilized heparin-BSA (ELISA); design: species or system porcine; conditions: for IC50: Tau, heparin-BSA; for inhibition at 30 µM: read-out: Tau/Heparin Activity (% inhibition class)
Experimental: as §1
The assay was performed as described in Example 43, with the following modifications. Following to coating the plates with Heparin-BSA, plates were washed as described. The compounds were dissolved in DMSO at 10 mM final concentration and further diluted prior to assay. DMSO concentration in the screening well was up to 2%. Individual compounds were co-incubated with Tau on plates containing immobilized heparin. Tau purchased from rPeptide (Cat. No. T1001) was dissolved in DMSO (Sigma Cat. No. D2650), quickly frozen and kept in aliquots at −80 degrees Celsius. Tau dissolved in PBS (pH 6.5, supplemented with BSA, 0.1%) was added to the ELISA plate (100 μl per well) and incubated for 2 hours at RT with gentle shaking. Following the incubation, the plate was washed with de-ionized water and three times with PBS (pH 6.5) plus Tween. Bound Tau was detected by anti-Tau Monoclonal Antibody D-8 (Santa Cruz Cat. No. sc-166060), followed by secondary anti-IgG antibody conjugated to HRP (R&D System, Cat. No. HAF007). Following to color development with TMB, as described in Example 43, the Optical Density of the samples was measured at 450 nm using an ELISA plate reader. Following color development, the % inhibition compared to control (no compound, DMSO control) for every compound was determined.
An example of inhibition curve is shown in FIG. 3 for Inhibitor Compounds 3 and 6. As described in Example 43, Heparin in the form of Heparin-BSA conjugate is used as a source of HS-GAG. For each compound IC-50 value in Tau—heparin-BSA binding assay is shown in […]. In some cases IC-50 was not measured and […] at 30 μM compound concentration is shown instead. […]

[3] = read-out: Serum Amyloid A/Heparin Activity (IC-50); SAA, heparin-BSA
[4] = SAA, heparin-BSA; read-out: Serum Amyloid A/Heparin Activity (IC-50)
[5] = read-out: Tau/Heparin Activity (IC-50)
[6] = read-out: Serum Amyloid A/Heparin Activity (% inhibition class)

Tau binding to heparin (HS-GAG), sequence (P10636 with tags, fused parts or gaps): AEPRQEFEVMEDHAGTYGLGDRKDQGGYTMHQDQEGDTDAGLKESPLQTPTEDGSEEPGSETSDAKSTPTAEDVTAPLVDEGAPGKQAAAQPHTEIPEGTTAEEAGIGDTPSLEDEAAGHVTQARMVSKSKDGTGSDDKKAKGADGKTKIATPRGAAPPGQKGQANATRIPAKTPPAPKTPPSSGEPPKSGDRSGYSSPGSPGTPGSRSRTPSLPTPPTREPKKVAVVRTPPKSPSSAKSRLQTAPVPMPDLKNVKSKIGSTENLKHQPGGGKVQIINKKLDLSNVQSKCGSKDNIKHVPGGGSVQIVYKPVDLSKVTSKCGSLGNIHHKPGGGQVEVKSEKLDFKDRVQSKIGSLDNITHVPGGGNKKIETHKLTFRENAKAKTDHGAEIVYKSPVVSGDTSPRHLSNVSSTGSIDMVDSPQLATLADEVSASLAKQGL

SMILES | IC50 [1, 3] [µM] | IC50 ([2]; Tau/Heparin Activity (IC-50)) [µM] | inhibition at 30 µM [1, 6] [%] | further results
Cc1ncn(-c2ccc(/C=N\Nc3ncnc4cc(Cl)ccc34)cn2)c1C [Compound 15, 7-chloro-4-(2-((6-(4,5-dimethyl-1H-imidazol-1-yl)pyridin-3-yl)methylene)hydrazineyl)quinazoline hydrochloride] | 12.3 | 67.9 |  | 
C/C(=N\Nc1ncnc2cc(Cl)ccc12)c1ccc(-n2cnc(C)c2C)nc1 [Compound 16, 7-chloro-4-(2-(1-(6-(4,5-dimethyl-1H-imidazol-1-yl)pyridin-3-yl)ethylidene)hydrazineyl)quinazoline phosphate] | 13.9 | 3.92 |  | 
C/C(=N\Nc1ncnc2cc(Cl)ccc12)c1ccc(-n2cc[n+](C)c2)nc1 [Compound 17, (E)-1-(5-(1-(2-(7-chloroquinazolin-4-yl)hydrazineylidene)ethyl)pyridin-2-yl)-3-methyl-1H-imidazol-3-ium iodide phosphoric acid salt] | 34.9 | 12.2 |  | 
C/C(=N\Nc1ncnc2cc(Cl)ccc12)c1ccc(-n2cc(C)nc2C)nc1 [Compound 18, (E)-7-chloro-4-(2-(1-(6-(2,4-dimethyl-1H-imidazol-1-yl)pyridin-3-yl)ethylidene)hydrazineyl)quinazoline phosphoric acid salt] |  |  |  | IC50 [1, 4]: 22.2 µM; IC50 [2, 5]: 13.6 µM
C/C(=N\Nc1ncnc2ccccc12)c1ccc(-n2cc(C)nc2C)nc1 [Compound 19, (E)-4-(2-(1-(6-(2,4-dimethyl-1H-imidazol-1-yl)pyridin-3-yl)ethylidene)hydrazineyl)quinazoline] | 8.59 | 46.6 |  | 
CN1CCN(c2cc(Nc3ccnc4cc(Cl)ccc34)ccn2)CC1 [Compound 20, 7-chloro-N-(2-(4-methylpiperazin-1-yl)pyridin-4-yl)quinolin-4-amine] |  |  | > 30 | inhibition at 30 µM [2]: < 30%
C/C(=N\Nc1ncnc2cc(F)ccc12)c1ccc(-n2cnc(C)c2C)nc1 [Compound 21, (E)-4-(2-(1-(6-(4,5-dimethyl-1H-imidazol-1-yl)pyridin-3-yl)ethylidene)hydrazineyl)-7-fluoroquinazoline] |  |  |  | IC50 [1, 4]: 85.2 µM; IC50 [2, 5]: 80.9 µM
CC(=NNc1ccnc2cc(Cl)ccc12)c1ccc(-n2cnc(C)c2C)nc1 [Compound 22, 7-chloro-4-(2-(1-(6-(4,5-dimethyl-1H-imidazol-1-yl)pyridin-3-yl)ethylidene)hydrazineyl)quinoline] | 83.2 | 28.2 |  | 
CC(=NNc1ccnc2cc(Cl)ccc12)c1ccc(-n2cc[n+](C)c2)nc1 [Compound 23, 1-(5-(1-(2-(7-chloroquinolin-4-yl)hydrazineylidene)ethyl)pyridin-2-yl)-3-methyl-1H-imidazol-3-ium iodide] |  | 25.7 | < 30 | 
C/C(=N\Nc1nncc2cc(Cl)ccc12)c1ccc(-n2cc(C)nc2C)nc1 [Compound 24, (E)-6-chloro-1-(2-(1-(6-(2,4-dimethyl-1H-imidazol-1-yl)pyridin-3-yl)ethylidene)hydrazineyl)phthalazine] |  |  |  | IC50 [1, 4]: 7.89 µM; IC50 [2, 5]: 37.9 µM
Cc1ncn(-c2ccc(Nc3ncnc4cc(Cl)ccc34)cn2)c1C [Compound 25, 7-chloro-N-(6-(4,5-dimethyl-1H-imidazol-1-yl)pyridin-3-yl)quinazolin-4-amine] | 40.9 |  |  | inhibition at 30 µM [2]: < 30%
C/C(=N\Nc1ncnc2cc(F)ccc12)c1ccc(-n2cc[n+](C)c2)nc1 [Compound 26, (E)-1-(5-(1-(2-(7-fluoroquinazolin-4-yl)hydrazineylidene)ethyl)pyridin-2-yl)-3-methyl-1H-imidazol-3-ium phosphoric acid salt] |  | 17.7 | < 30 | 
C/C(=N\Nc1ncnc2cc(Cl)ccc12)c1ccc(-n2cc(C)nc2C)nc1 [Compound 27, (E)-7-chloro-4-(2-(1-(6-(2,4-dimethyl-1H-imidazol-1-yl)pyridin-3-yl)ethylidene)hydrazineyl)quinazoline hydrochloride] |  |  |  | IC50 ([1]; SAA, heparin-BSA; hydrochloride; read-out: Serum Amyloid A/Heparin Activity (IC-50)): 24.7 µM; IC50 [2, 5]: 2.86 µM
CC(=NNc1ncnc2cc(Cl)ccc12)c1ccnc(-n2cnc(C)c2C)c1 [Compound 28, 7-chloro-4-(2-(1-(2-(4,5-dimethyl-1H-imidazol-1-yl)pyridin-4-yl)ethylidene)hydrazineyl)quinazoline] |  |  |  | IC50 [1, 4]: 8.78 µM; IC50 [2, 5]: 61.8 µM
C/C(=N\Nc1ncnc2cc(Cl)ccc12)c1cccc(CN(C)C)c1 [Compound 29, 1-(3-(1-(2-(7-chloroquinazolin-4-yl)hydrazineylidene)ethyl)phenyl)—N,N-dimethylmethanamine] |  | 32.4 | < 30 | 
C/C(=N\Nc1ncnc2cc(Cl)ccc12)c1cccc(N2CCN(C)CC2)c1 [Compound 30, 7-chloro-4-(2-(1-(3-(4-methylpiperazin-1-yl)phenyl)ethylidene)hydrazineyl)quinazoline] |  | 32.2 | < 30 | 
COc1cc(Nc2nncc3cc(Cl)ccc23)cnc1-n1cnc(C)c1C [Compound 31, 6-chloro-N-(6-(4,5-dimethyl-1H-imidazol-1-yl)-5-methoxypyridin-3-yl)phthalazin-1-amine phosphoric acid salt] |  | 33.7 | > 30 | 
C/C(=N\Nc1ncnc2cc(Cl)ccc12)c1ccc(-n2cncn2)nc1 [Compound 32, (E)-4-(2-(1-(6-(1H-1,2,4-triazol-1-yl)pyridin-3-yl)ethylidene)hydrazineyl)-7-chloroquinazoline] |  |  | > 30 | inhibition at 30 µM [2]: < 30%
